Test results reported in patent publication US6949544B2, “Inhibitors of c-Jun N-terminal kinases (JNK) and other protein kinases” (Vertex Pharmaceuticals Incorporated, priority 2001, dated 2005).

Experiments:
Type in all cases: biochemical
activated JNK3 = molecular target: T1, activated JNK3 (Homo sapiens, UniProt P53779); test: JNK inhibition assay (spectrophotometric coupled-enzyme assay); conditions: for Ki: 10 nM activated JNK3, 10 μM ATP, read-out: Activity in the JNK3 Inhibition Assay (Ki rating A-C)
T1 construct: One such construct encodes amino acid residues Ser40-Glu402 of JNK3α1 and is preceded by Met and Gly residues; Met-Gly (initiator methionine and added glycine) (N); made in house; host or cells: E. coli BL21 (DE3)
T1 sequence (P53779 40-402): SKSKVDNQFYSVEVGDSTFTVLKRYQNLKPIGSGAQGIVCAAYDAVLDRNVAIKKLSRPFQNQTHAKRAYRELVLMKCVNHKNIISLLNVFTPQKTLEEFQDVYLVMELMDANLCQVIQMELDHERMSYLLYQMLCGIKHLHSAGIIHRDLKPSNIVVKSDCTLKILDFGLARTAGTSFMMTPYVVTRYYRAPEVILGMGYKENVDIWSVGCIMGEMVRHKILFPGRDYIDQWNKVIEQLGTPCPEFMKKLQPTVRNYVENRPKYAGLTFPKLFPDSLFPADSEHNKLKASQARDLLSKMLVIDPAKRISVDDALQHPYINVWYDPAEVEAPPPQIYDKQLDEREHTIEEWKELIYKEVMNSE
Excerpt: A BLAST search of the EST database using the published JNK3α1 cDNA as a query identified an EST clone (#632588) that contained the entire coding sequence for human JNK3α1. Polymerase chain reactions (PCR) using pfu polymerase (Strategene) were used to introduce restriction sites into the cDNA for cloning into the pET-15B expression vector at the NcoI and BamHI sites. The protein was expressed in E. coli. […] This truncation corresponds to Ser 2 of JNK1 and JNK2 proteins, and is preceded by a methionine (initiation) and a glycine residue. The glycine residue was added in order to introduce an NcoI site for cloning into the expression vector. In addition, systematic C-terminal truncations were performed by PCR to identify a construct that give rise to diffraction-quality crystals.
5 mg of JNK3 was diluted to 0.5 mg/ml in 50 mM HEPES buffer, pH 7.5, containing 100 mM NaCl, 5 mM DTT, 20 mM MgCl2 and 1 mM ATP. GST-MKK7(DD) was added at a molar ratio of 1:2.5 GST-MKK7:JNK3. After incubation for 30 minutes at 25° C., the reaction mixture was concentrated 5-fold by ultrafiltration in a Centriprep-30 (Amicon, Beverly, Mass.), diluted to 10 ml and an additional 1 mM ATP added. This procedure was repeated three times to remove ADP and replenish ATP. The final addition of ATP was 5 mM and the mixture incubated overnight at 4° C.
The activated JNK3/GST-MKK7(DD) reaction mixture was exchanged into 50 mM HEPES buffer, pH 7.5, containing 5 mM DTT and 5% glycerol (w/v) by dialysis or ultrafiltration. The reaction mixture was adjusted to 1.1 M potassium phosphate, pH 7.5, and purified by hydrophobic interaction chromatography (at 25° C.) using a Rainin Hydropore column. […] Activated JNK3 (i.e. doubly phosphorylated JNK3) was stored at −70° C. at 0.25-1 mg/ml.
Compounds were assayed for the inhibition of JNK3 by a spectrophotometric coupled-enzyme assay. In this assay, a fixed concentration of activated JNK3 (10 nM) was incubated with various concentrations of a potential inhibitor dissolved in DMSO for 10 minutes at 30° C. in a buffer containing 0.1 M HEPES buffer, pH 7.5, containing 10 mM MgCl2, 2.5 mM phosphoenolpyruvate, 200 μM NADH, 150 μg/mL pyruvate kinase, 50 μg/mL lactate dehydrogenase, and 200 μM EGF receptor peptide. […] The reaction was initiated by the addition of 10 μM ATP and the assay plate is inserted into the spectrophotometer's assay plate compartment that was maintained at 30° C. The decrease of absorbance at 340 nm was monitored as a function of time. The rate data as a function of inhibitor concentration was fitted to competitive inhibition kinetic model to determine the Ki.

[1] = molecular target: T2, Lck kinase purified from bovine thymus (Bos taurus, UniProt Q3ZCM0); test: Lck inhibition assay (33P incorporation into poly Glu-Tyr); conditions: 10 μM ATP; read-out: Activity in the Lck Inhibition Assay (Ki rating A-C)
T2 construct: Lck kinase purified from bovine thymus; purchased Upstate Biotechnology 14-106; host or cells: bovine thymus (tissue-purified)
T2 sequence (Q3ZCM0 1-509): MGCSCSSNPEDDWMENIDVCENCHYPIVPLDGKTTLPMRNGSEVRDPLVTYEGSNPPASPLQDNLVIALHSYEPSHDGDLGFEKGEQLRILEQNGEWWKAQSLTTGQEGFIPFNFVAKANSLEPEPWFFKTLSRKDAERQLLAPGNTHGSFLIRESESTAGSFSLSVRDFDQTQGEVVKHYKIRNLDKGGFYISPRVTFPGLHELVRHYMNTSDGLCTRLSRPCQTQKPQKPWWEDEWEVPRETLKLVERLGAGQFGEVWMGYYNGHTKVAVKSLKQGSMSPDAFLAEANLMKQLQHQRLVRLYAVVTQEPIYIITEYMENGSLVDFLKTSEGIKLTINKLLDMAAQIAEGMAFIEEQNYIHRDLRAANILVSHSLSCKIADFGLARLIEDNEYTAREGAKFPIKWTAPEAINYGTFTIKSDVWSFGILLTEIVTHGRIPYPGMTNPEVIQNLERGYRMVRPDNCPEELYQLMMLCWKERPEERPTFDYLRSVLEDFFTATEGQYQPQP
Experimental: The compounds were assayed as inhibitors of Lck kinase purified from bovine thymus (from Upstate Biotechnology, cat. no. 14-106). Lck kinase activity was monitored by following the incorporation of ^33P from ATP into the tyrosine of a random poly Glu-Tyr polymer substrate of composition, Glu:Tyr=4:1 (Sigma, cat. no. P-0275). The following were the final concentrations of the assay components: 0.05 M HEPES, pH 7.6, 10 mM MgCl2, 2 mM DTT, 0.25 mg/ml BSA, 10 μM ATP (1-2 μCi ^33P-ATP per reaction), 5 mg/ml poly Glu-Tyr, and 1-2 units of lck kinase. In a typical assay, all the reaction components with the exception of ATP were pre-mixed and aliquoted into assay plate wells. […] The assay plate was incubated at 30° C. for 10 min before initiating the reaction with ^33P-ATP. After 20 min of reaction, the reactions were quenched with 150 μl of 10% trichloroacetic acid (TCA) containing 20 mM Na3PO4. The quenched samples were then transferred to a 96-well filter plate (Whatman, UNI-Filter GF/F Glass Fiber Filter, cat no. 7700-3310) installed on a filter plate vacuum manifold. Filter plates were washed four times with 10% TCA containing 20 mM Na3PO4 and then 4 times with methanol. 200 μl of scintillation fluid was then added to each well. The plates were sealed and the amount of radioactivity associated with the filters was quantified on a TopCount scintillation counter.

[2] = molecular target: Glycogen Synthase Kinase 3 (GSK-3) (Homo sapiens, UniProt P49841); test: GSK-3 inhibition assay (standard coupled enzyme assay); conditions: 60 nM GSK-3, 10 μM ATP; read-out: GSK-3 Inhibitory Activity (Ki rating A-C)
Glycogen Synthase Kinase 3 (GSK-3), sequence (P49841 whole entry): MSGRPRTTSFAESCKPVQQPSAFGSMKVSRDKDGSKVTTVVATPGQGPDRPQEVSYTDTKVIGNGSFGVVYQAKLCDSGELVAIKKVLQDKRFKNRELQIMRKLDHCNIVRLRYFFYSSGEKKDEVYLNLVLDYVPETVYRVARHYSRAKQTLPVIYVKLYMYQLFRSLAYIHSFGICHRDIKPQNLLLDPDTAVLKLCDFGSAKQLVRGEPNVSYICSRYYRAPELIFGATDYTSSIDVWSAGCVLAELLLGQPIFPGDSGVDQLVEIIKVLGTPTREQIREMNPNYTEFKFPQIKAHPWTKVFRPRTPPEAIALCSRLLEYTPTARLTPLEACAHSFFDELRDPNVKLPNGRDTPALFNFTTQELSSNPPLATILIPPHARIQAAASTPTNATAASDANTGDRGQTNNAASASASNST
Experimental: Compounds were screened in the following manner for their ability to inhibit Glycogen Synthase Kinase 3 (GSK-3) using a standard coupled enzyme assay (Fox et al (1998) Protein Sci 7, 2249). To an assay stock buffer solution containing 0.1M HEPES 7.5, 10 mM MgCl2, 25 mM NaCl, 2.5 mM phosphoenolpyruvate, 300 μM NADH, 1 mM DTT, 30 μg/mL pyruvate kinase, 10 μg/mL lactate dehydrogenase, 300 μM peptide (HSSPHQp-SEDEEE, American Peptide, Sunnyvale, Calif.), and 60 nM GSK-3, was added a 30 μM solution of the compound in DMSO and the resulting mixture incubated at 30° C. for 5 min. The reaction was initiated by the addition of 10 μM ATP. The rates of reaction were obtained by monitoring absorbance at 340 nm over a 5 minute read time at 30° C. using a Molecular Devices plate reader (Sunnyvale, Calif.). The IC50 was determined from the rate data as a function of inhibitor concentration.

CDK-2/Cyclin A = CDK-2/Cyclin A (Homo sapiens, UniProt P24941); test: CDK2 inhibition assay (standard coupled enzyme assay); conditions: 25 nM CDK-2/Cyclin A; read-out: CDK2 Inhibitory Activity (Ki rating A-C)
Experimental: Compounds were screened in the following manner for their ability to inhibit CDK2 using a standard coupled enzyme assay (Fox et al (1998) Protein Sci 7, 2249).
To an assay stock buffer solution containing 0.1M HEPES 7.5, 10 mM MgCl2, 1 mM DTT, 25 mM NaCl, 2.5 mM phosphoenolpyruvate, […], […], […], […], and 100 μM peptide ([…], American Peptide, Sunnyvale, Calif.) was added a DMSO solution of a compound of the present invention to a final concentration of 30 μM. The resulting mixture was incubated at 30° C. for 10 minutes.
The reaction was initiated by the addition of 10 μL of CDK-2/Cyclin A stock solution to give a final concentration of 25 nM in the assay. The rates of reaction were obtained by monitoring absorbance at 340 nm over a 5-minute read time at 30° C. using a BioRad Ultramark plate reader (Hercules, Calif.). The Ki values were determined from the rate data as a function of inhibitor concentration.

COc1ccc(-c2ccnc(Nc3ncnc(Nc4ccccc4)n3)n2)c(OC)c1OC [II-32]
Ki (activated JNK3): < 0.1 µM
Ki [1]: > 1 µM
Ki [2]: 0.1 to 1 µM

COc1cc(-c2ccnc(Nc3cccc(OCc4ccccc4)c3)n2)cc(OC)c1OC [Compound I-38]
Ki (activated JNK3): < 0.1 µM
Ki [2]: < 0.1 µM
Ki (CDK-2/Cyclin A): > 5 µM

COc1ccc(Nc2nccc(-c3ccc(OC)c(OC)c3OC)n2)cc1O [II-70]
Ki [1]: 0.1 to 1 µM
Ki [2]: 0.1 to 1 µM
Ki (CDK-2/Cyclin A): > 5 µM

COc1ccc(-c2ccnc(Nc3cc(-c4cccc(N)c4)ccc3C)n2)c(OC)c1OC [II-46]
Ki [1]: 0.1 to 1 µM
Ki [2]: > 1 µM
Ki (CDK-2/Cyclin A): > 5 µM

COc1ccc(Nc2nccc(-c3cc(OC)c(OC)c(OC)c3)n2)cc1Cl [Compound I-35]
Ki (activated JNK3): < 0.1 µM
Ki [2]: < 0.1 µM
Ki (CDK-2/Cyclin A): > 5 µM

COc1ccc(Oc2cc(Nc3nccc(-c4ccc(OC)c(OC)c4OC)n3)ccc2OC)cc1 [II-73]
Ki [1]: < 0.1 µM
Ki [2]: < 0.1 µM
Ki (CDK-2/Cyclin A): > 5 µM

COc1c(Cl)cc(-c2ccnc(Nc3cccc(Cl)c3)n2)cc1Cl [Compound I-41]
Ki (activated JNK3): 0.1 to 1 µM
Ki [2]: 0.1 to 1 µM
Ki (CDK-2/Cyclin A): > 5 µM

CCOc1ccc(Oc2cc(Nc3nccc(-c4ccc(OC)c(OC)c4OC)n3)ccc2OC)cc1 [II-76]
Ki [1]: < 0.1 µM
Ki [2]: 0.1 to 1 µM
Ki (CDK-2/Cyclin A): > 5 µM

COc1c(-c2ccnc(Nc3cccc(OCc4ccccc4)c3)n2)ccc2c1OCCO2 [II-18]
Ki [1]: > 1 µM
Ki [2]: > 1 µM

COc1cc(-c2ccnc(Nc3cc(F)c(F)c(F)c3)n2)cc(OC)c1OC [Compound I-22]
Ki (activated JNK3): < 0.1 µM
Ki [2]: > 1 µM
Ki (CDK-2/Cyclin A): > 5 µM

COc1cccc(Nc2nccc(-c3cc(OC)c(OCCN4CCOCC4)c(OC)c3)n2)c1 [Compound I-49]
Ki (activated JNK3): < 0.1 µM
Ki [2]: 0.1 to 1 µM
Ki (CDK-2/Cyclin A): > 5 µM

COc1ccc(-c2ccnc(Nc3cccc(Oc4cccc(N)c4)c3)n2)c(OC)c1OC [II-26]
Ki [1]: < 0.1 µM
Ki [2]: < 0.1 µM

COc1cccc(Nc2nccc(-c3cc(C)c(OC)c(C)c3)n2)c1 [Compound I-52]
Ki (activated JNK3): < 0.1 µM
Ki [2]: 0.1 to 1 µM

COc1ccc(-c2ccc(C)c(Nc3nccc(-c4ccc(OC)c(OC)c4OC)n3)c2)cc1 [II-44]
Ki [1]: 0.1 to 1 µM
Ki [2]: > 1 µM
Ki (CDK-2/Cyclin A): > 5 µM

COc1ccc(-c2ccccc2)cc1Nc1nccc(-c2ccc(OC)c(OC)c2OC)n1 [II-48]
Ki [1]: 0.1 to 1 µM
Ki [2]: 0.1 to 1 µM
Ki (CDK-2/Cyclin A): > 5 µM

COc1cc(-c2ccnc(Nc3cccc(Cl)c3)n2)cc(OC)c1OCCN1CCOCC1 [Compound I-39, (3-Chlorophenyl)-(4[3,5-dimethoxy-4-(2-morpholin-4-yl-ethoxy)phenyl]pyrimidin-2-yl)-amine]
Ki (activated JNK3): < 0.1 µM
Ki [2]: 0.1 to 1 µM
Ki (CDK-2/Cyclin A): > 5 µM

COc1cccc(Nc2nccc(-c3cc(Cl)c(OC)c(Cl)c3)n2)c1 [Compound I-51]
Ki (activated JNK3): < 0.1 µM
Ki [2]: 0.1 to 1 µM
Ki (CDK-2/Cyclin A): > 5 µM

COc1cc(-c2ccnc(Nc3onc(C)c3C)n2)cc(OC)c1OC [Compound I-87]
Ki (activated JNK3): 0.1 to 1 µM
Ki [2]: > 1 µM

COc1cccc(Nc2ncnc(Nc3nccc(-c4ccc(OC)c(OC)c4OC)n3)n2)c1 [II-33]
Ki (activated JNK3): > 1 µM
Ki [1]: > 1 µM
Ki [2]: > 1 µM

COc1cc(-c2ccnc(Nc3ccc(Cl)cc3)n2)cc(OC)c1OC [Compound I-9]
Ki (activated JNK3): < 0.1 µM
Ki [2]: 0.1 to 1 µM
Ki (CDK-2/Cyclin A): > 5 µM

COc1cc(-c2ccnc(Nc3nc(C)cs3)n2)cc(OC)c1OC [Compound I-10]
Ki (activated JNK3): 0.1 to 1 µM
Ki [2]: 0.1 to 1 µM
Ki (CDK-2/Cyclin A): > 5 µM

COc1ccc(Nc2nccc(-c3ccc(OC)c(OC)c3OC)n2)cc1N [II-72]
Ki [1]: > 1 µM
Ki [2]: > 1 µM
Ki (CDK-2/Cyclin A): > 5 µM

COc1c(Br)cc(-c2ccnc(Nc3cccc(Cl)c3)n2)cc1Br [Compound I-43]
Ki (activated JNK3): 0.1 to 1 µM
Ki [2]: 0.1 to 1 µM
Ki (CDK-2/Cyclin A): > 5 µM

COc1ccc(-c2ccnc(Nc3cc(-c4cccc(F)c4)ccc3C)n2)c(OC)c1OC [II-45]
Ki [1]: 0.1 to 1 µM
Ki [2]: > 1 µM
Ki (CDK-2/Cyclin A): > 5 µM

COc1cc(-c2ccnc(Nc3nc4ccccc4[nH]3)n2)cc(OC)c1OC [Compound I-65]
Activity in the JNK3 Inhibition Assay (percent inhibition rating D-F) (activated JNK3; at a 2 μM inhibitor concentration): D (percent inhibition less than or equal to 33%)
Ki [2]: < 0.1 µM
Ki (CDK-2/Cyclin A): > 5 µM

COc1cc(-c2ccnc(Nc3nnc(C)s3)n2)cc(OC)c1OC [Compound I-83]
Ki (activated JNK3): > 1 µM
Ki [2]: > 1 µM

COc1cccc(Nc2nccc(-c3cc(OC)c(OC)c(OC)c3)n2)c1 [Compound I-20]
Ki (activated JNK3): < 0.1 µM
Ki [2]: 0.1 to 1 µM
Ki (CDK-2/Cyclin A): > 5 µM

COc1ccc(-c2ccnc(Nc3cccc(Oc4cccc([N+](=O)[O-])c4)c3)n2)c(OC)c1OC [II-25]
Ki [1]: < 0.1 µM
Ki [2]: < 0.1 µM

COc1cc(-c2ccnc(Nc3cccc(Cl)c3)n2)cc(OC)c1OC [Compound I-18]
Ki (activated JNK3): < 0.1 µM
Ki [2]: < 0.1 µM
Ki (CDK-2/Cyclin A): > 5 µM

COc1cc(-c2ccnc(Nc3ccccc3F)n2)cc(OC)c1OC [Compound I-5]
Ki (activated JNK3): 0.1 to 1 µM
Ki [2]: > 1 µM
Ki (CDK-2/Cyclin A): > 5 µM

COc1c(C)cc(-c2ccnc(Nc3cccc(Cl)c3)n2)cc1C [Compound I-42]
Ki (activated JNK3): < 0.1 µM
Ki [2]: > 1 µM
Ki (CDK-2/Cyclin A): > 5 µM
